Experimental data published in US8691864B2, “Agents useful for reducing amyloid precursor protein and treating dementia and methods of use thereof” (priority 2000, dated 2014).

Experiments:
total Aβ peptide = assay: total Aβ ELISA in SK-N-SH conditioned medium; assay type: cell-based, human; details: 50 μM
Procedure: Total Aβ peptide levels in SH-SY-SY and SK-N-SH cultured samples were assayed by a sensitive ELISA (Suzuki et al., 1994). For total Aβ measurements in conditioned medium, the rabbit polyclonal antibody #3160 (1-40 residues of Aβ) was used as a capture antibody for all species of Aβ peptide (Aβ1-40 and Aβ1-42) while monoclonal antibody 4G8 (17-25 residues of Aβ) was used to detect Aβ peptide levels, and the values were expressed as the mean of six independent assays.
Likewise, (+)-phenserine reduced BAPP protein levels and total Aβ peptide levels at 16 hours (FIG. 5).

βAPP [1] = assay: βAPP protein levels in U373 MG astrocytoma cells, western blot; assay type: cell-based; details: FIGS. 6A-C, alone or with PD98059 or LY294002
Procedure: SK-N-SH neuroblastoma cells were cultured on 60 mm dishes at a concentration of 3×10^6 cells, and SH-SY-5Y neuroblastoma and U373 astrocytorna cell lines were plated in 100 mm dishes at a concentration of 3×10^5 cells. The cells were allowed to grow in complete medium ([…], 2 mM glutamine in DMEM) for 3 to 4 days until they reached 70% confluence. To start the experiment, spent medium was removed and replaced with fresh medium (SKNSH—4 ml of DMEM+0.5% FBS; U373—5 ml of DMEM+2.5% FBS) containing 0, 5, or 50 μM phenserine. The cells were incubated at 37° C., 5% CO2 for the specific times indicated. Different media and sera were purchased from Life Technologies (Gaithersberg, Md.). […]
At each time point, the spent medium was collected and stored at −70° C. for later analysis of secretory βAPP levels. The cells were washed twice with PBS, pH 7.4 and incubated on ice for 15 min for lysis with 100 μL of lysis buffer (20 mM HEPES, 2 mM EGTA, 50 mM (β-glycophosphate, 1 mM sodium orthovanadate, 1% Triton X-100, 10% glycerol) containing appropriate protease inhibitors (2 mM PMSF, 100 μg/mL aprotinin, 25 μM leupeptin and 20 μg/mL soybean trypsin inhibitor). Each lysate was microcentrifuged for 15 min at 14 000 rpm. Protein levels of the supernatant were analyzed by the Bradford protein assay (BioRad, Melville, N.Y.). […]

βAPP [2] = assay: βAPP levels in brain cortex and CSF of transgenic mice; assay type: in vivo; details: 2.5 mg/kg i.p., once daily for 3 weeks
Aβ1-42 = Aβ1-42 levels in cerebral cortex of transgenic mice, ELISA; assay type: in vivo; details: formic acid extraction, 3 weeks daily
Procedure: Greater reductions could be achieved, but, as previously reported, doses of >5 mg/kg produce cholinergic side effects for the (−)-enantiomer but not for the (+)-enantiomer.
Samples of cerebral cortex from the transgenic mice then were analyzed for β amyloid peptide (Aβ) levels. Specifically, Aβ1-40 and Aβ1-42 levels, following formic acid extraction, were determined by ELISA assay (Suzuki et al., 1994).

## CN1CC[C@@]2(C)c3cc(OC(=O)Nc4ccccc4)ccc3N(C)[C@@H]12 [(−)-phenserine]
Total Aβ peptide; 8 hours
  reduction of total Aβ versus untreated controls: 14%
Total Aβ peptide; 16 hours
  reduction of total Aβ versus untreated controls: 31%
βAPP [1]
  reduction of βAPP protein levels, densitometric quantification: > 25%
βAPP [2]
  reduction of βAPP levels in CSF: 55%
Aβ1-42
  reduction of Aβ1-42 levels: 53%
